Measurements published in patent US20240116998A1, “GLUCAGON-LIKE PEPTIDE-1 RECEPTOR ANTAGONISTS” (INDIANA UNIVERSITY RESEARCH AND TECHNOLOGY CORPORATION, priority 2021, published 2024).
≈ marks a conversion by molar mass, not a printed value. Non-standard residues stand in square brackets, D forms with d. Residues, ends and D or L forms follow the SMILES beside them. *: point of attachment. Palmitoyl = CCCCCCCCCCCCCCCC(=O)*; Aib = CC(C)(N)C(=O)O

assay: Solubility of peptides in buffer; format: physicochemical; settings: pH 7.4

| Structure (SMILES) | solubility |
| --- | --- |
| CCCCCCCCCCCCCCCC(=O)NCCCC[C@H](NC(=O)[C@H](CO)NC(=O)[C@@H]1CCCN1C(=O)[C@@H]1CCCN1C(=O)[C@@H]1CCCN1C(=O)[C@H](C)NC(=O)CNC(=O)[C@H](CO)NC(=O)[C@H](CO)NC(=O)[C@@H]1CCCN1C(=O)CNC(=O)CNC(=O)[C@H](CCCCN)NC(=O)[C@@H](NC(=O)C(C)(C)NC(=O)[C@H](Cc1c[nH]c2ccccc12)NC(=O)[C@H](C)NC(=O)[C@@H](NC(=O)[C@H](Cc1ccccc1)NC(=O)[C@H](CCC(=O)O)NC(=O)[C@H](CCCNC(=N)N)NC(=O)[C@@H](NC(=O)[C@H](C)NC(=O)[C@H](CCC(N)=O)NC(=O)[C@H](CCC(=O)O)NC(=O)[C@H](CCC(=O)O)NC(=O)[C@H](CC(C)C)NC(=O)[C@H](Cc1ccc(O)cc1)NC(=O)[C@H](CO)NC(=O)[C@H](CO)NC(=O)[C@@H](NC(=O)[C@@H](N)CC(=O)O)C(C)C)C(C)C)[C@@H](C)CC)C(C)C)C(N)=O [SEQ ID NO: 44] (H-DVSSYLEEQAVREFIAW[Aib]VKGGPSSGAPPPSK(Palmitoyl)-NH2; N-terminus assumed) | 0.1 mg/mL (≈ 27.7 µM) |
| CCCCCCCCCCCCCCCC(=O)NCCCC[C@H](NC(=O)[C@H](CO)NC(=O)[C@@H]1CCCN1C(=O)[C@@H]1CCCN1C(=O)[C@@H]1CCCN1C(=O)[C@H](C)NC(=O)CNC(=O)[C@H](CO)NC(=O)[C@H](CO)NC(=O)[C@@H]1CCCN1C(=O)CNC(=O)CNC(=O)[C@H](CCCCN)NC(=O)[C@@H](NC(=O)[C@H](CC(C)C)NC(=O)[C@H](Cc1c[nH]c2ccccc12)NC(=O)[C@H](C)NC(=O)[C@@H](NC(=O)[C@H](Cc1ccccc1)NC(=O)[C@H](CCC(=O)O)NC(=O)[C@H](CCCNC(=N)N)NC(=O)[C@@H](NC(=O)[C@H](C)NC(=O)[C@H](CCC(N)=O)NC(=O)C(C)(C)NC(=O)[C@H](CCC(=O)O)NC(=O)[C@H](CC(C)C)NC(=O)[C@H](Cc1ccc(O)cc1)NC(=O)[C@H](CO)NC(=O)[C@H](CO)NC(=O)[C@@H](NC(=O)[C@@H](N)CC(=O)O)C(C)C)C(C)C)[C@@H](C)CC)C(C)C)C(N)=O [SEQ ID NO: 84] (H-DVSSYLE[Aib]QAVREFIAWLVKGGPSSGAPPPSK(Palmitoyl)-NH2; N-terminus assumed) | 0.2 mg/mL (≈ 55.6 µM) |
| CCCCCCCCCCCCCCCC(=O)NCCCC[C@H](NC(=O)[C@H](CO)NC(=O)[C@@H]1CCCN1C(=O)[C@@H]1CCCN1C(=O)[C@@H]1CCCN1C(=O)[C@H](C)NC(=O)CNC(=O)[C@H](CO)NC(=O)[C@H](CO)NC(=O)[C@@H]1CCCN1C(=O)CNC(=O)CNC(=O)[C@H](CCCCN)NC(=O)[C@@H](NC(=O)[C@H](CC(C)C)NC(=O)[C@H](Cc1c[nH]c2ccccc12)NC(=O)C(C)(C)NC(=O)[C@@H](NC(=O)[C@H](Cc1ccccc1)NC(=O)[C@H](CCC(=O)O)NC(=O)[C@H](CCCNC(=N)N)NC(=O)[C@@H](NC(=O)[C@H](C)NC(=O)[C@H](CCC(N)=O)NC(=O)[C@H](CCC(=O)O)NC(=O)[C@H](CCC(=O)O)NC(=O)[C@H](CC(C)C)NC(=O)[C@H](Cc1ccc(O)cc1)NC(=O)[C@H](CO)NC(=O)[C@H](CO)NC(=O)[C@@H](NC(=O)[C@@H](N)CC(=O)O)C(C)C)C(C)C)[C@@H](C)CC)C(C)C)C(N)=O [SEQ ID NO: 83] (H-DVSSYLEEQAVREFI[Aib]WLVKGGPSSGAPPPSK(Palmitoyl)-NH2; N-terminus assumed) | 0.3 mg/mL (≈ 82.1 µM) |
